One test deals with pMek1/2, pErk1/2. In words: Immunoblot of pMek/pErk in A375 cells expressing C-RAF alleles. Type of test: cell-based, human. Here is the method:
(§1) Samples were extracted after washing twice with PBS and lysed with 150 mM NaCl, 50 mM Tris pH 7.5, 1 mM EDTA, PMSF, Sodium Fluoride, Sodium Orthovanadate and protease inhibitor cocktail in the presence of 1% NP-40. The protein content was estimated with protein assay reagent (Bio-Rad) according to the manufacturer's instructions. Equal amounts of whole cell lysates were loaded onto and separated by 8-16% SDS-PAGE ready-made gels. Proteins were transferred to polyvinylidene difluoride membranes in a Trans-Blot apparatus. Membranes were blocked with 5% skim milk in TBS containing 0.1% Tween 20 for 1 h at room temperature or overnight at 4° C. Membranes were then incubated with monoclonal or polyclonal antibody raised against the protein of interest for 1 h at room temperature or overnight at 4° C. followed by three washes with TBS containing 0.1% Tween 20. The immunoreactivity of the primary antibodies C-RAF, S259C-RAF, S338C-RAF, S621C-RAF, PERK, ERK, pMEK, MEK, 14-3-3ζ Flag (Cell Signaling), B-RAF (Santa Cruz Biotechnology) and actin (Sigma) was visualized with a secondary anti-rabbit (BD Transduction Laboratories) or anti-mouse (Santa Cruz Biotechnology) antibodies conjugated with horseradish peroxidase and subsequent development with ECL Plus (Amersham Biosciences) and autoradiography on X-OMAR TAR films. The bands were scanned and quantified by the Gel Doc system using the Quantity One software.
(A western blot detects proteins with antibodies after separation by electrophoresis.)

The next test has as its system C-RAF (S259, S338, S621). As to the kind of experiment: Immunoblot of C-RAF phosphorylation sites S259, S338, S621. In kind it is cell-based, human. Particulars: for S259 phosphorylation: A375 expressing resistance mutants. Here is the method: as §1
Test [1] relates to 14-3-3/C-RAF interaction. In words: Immunoprecipitation with C-RAF, bound 14-3-3ζ. Type of test: cell-based, human. Here is the method: (§2) (A) 293/T cells transiently expressing the indicated C-RAF resistance mutants in the absence (−) or presence (+) of 2 μM vemurafenib for 1 h were immunoprecipitated with C-RAF and levels of bound protein (B-RAF and 14-3-3 ζ) (upper panels) was assessed by immunoblotting. Input lysate (lower panels) show 14-3-3 ζ, B-RAF, C-RAF, pMek1/2, pErk1/2, Mek, S338 C-RAF and actin. Results are representative of more than two independent experiments. (B) A375 cells stably expressing the indicated C-RAF resistance mutants in the presence and absence of 2 μM vemurafenib for 16 h were immunoprecipitated with C-RAF and levels of bound protein (B-RAF and 14-3-3 ζ) (upper panels) was assessed by immunoblotting. Input lysate was blotted for the same as in FIG. 7A. Results are representative of more than two independent experiments.
(§3) For immunoprecipitation with C-RAF antibody (BD Biosciences) protein G-Sepharose slurry (Thermo Scientific) was washed with 1×PBS and incubated with C-RAF antibody (BD Biosciences) or normal mouse IgG (control) for 1 h at 4° C. After three washes with lysis buffer, the beads were incubated with whole cell lysates (0.5 mg of total protein) for 2 h and then washed three times with lysis buffer. The proteins were then eluted by boiling in 1×SDS-sample buffer.

Test [2] addresses T1, 14-3-3/C-RAF interaction (Homo sapiens, UniProt P04049).
T1 construct: expressed in transfected cells; 14-3-3 ζ endogenous
In words: Immunoprecipitation with C-RAF, bound 14-3-3ζ. In kind it is cell-based. Particulars: A375 cells (BRAF V600E). The procedure:
as §2, §3

The subject of test [3] is A375 cells expressing C-RAF resistance allele S257P. As to the kind of experiment: Pharmacologic growth inhibition assay, S257P cells. In kind it is cell-based, human. Particulars: for increase of GI50 values compared to the WT: A375 expressing C-RAF S257P vs WT-C-RAF. The procedure:
(§4) GI50 values were calculated by determining the slope of the line connecting the data points that flanked the 50% point.

In test [4] the test system is C-RAF resistance mutants. As to the kind of experiment: C-RAF kinase assay (A375). Particulars: A375 expressing S257P, P261T and G361A; exposure to 2 μM vemurafenib. Type of test: biochemical, human. The procedure:
(§5) A375 cells infected with WT and mutant C-RAF alleles were cultured in the absence and presence of PLX4032 (Allele Biotech) for 16 h. Lysates were prepared with 150 mM NaCl, 50 mM Tris pH 7.5, 1 mM EDTA, PMSF, Sodium Fluoride, Sodium Orthovanadate and protease inhibitor cocktail in the presence of 1% NP-40. Immunoprecipitation with C-RAF antibody was performed overnight and bound beads were washed three times with lysis buffer, followed by kinase buffer (1×). […] The phosphorylated substrate MEK was detected by immunoblotting.

For test [5], the target named is T2, C-RAF resistance mutants (Homo sapiens, UniProt P04049, G361A).
T2 construct: expressed in transfected cells
In words: C-RAF kinase assay (A375). Type of test: biochemical. The conditions noted are these: A375 expressing G361A; Vemurafenib 16 h. The procedure:
as §5

Test [6] deals with A375 cells expressing C-RAF resistance allele P261T. In words: Pharmacologic growth inhibition assay, P261T cells. Type of test: cell-based, human. The conditions noted are these: for increase of GI50 values compared to the WT: A375 expressing C-RAF P261T vs WT-C-RAF. The procedure:
as §4

Test [7] deals with C-RAF resistance mutants. As to the kind of experiment: C-RAF kinase assay (293T). In kind it is biochemical, human. Particulars: 293T cells treated with 2 μM vemurafenib prior to assay; all resistance alleles examined. Here is the method: The 293T cells (70% confluent) were transfected with 6 μg pc-DNA with His or V5 tag towards the C-terminal containing C-RAF-WT and C-RAF variant alleles. Cells were treated with vemurafenib (Allele Biotech) for 1 h and 48 h post-transfection, lysates were extracted by general protocol. Immunoprecipitation using cobalt beads was performed […] for 1 hr at 4° C. […] The phosphorylated MEK product was detected by immunostaining using a p-MEK antibody (Cell Signaling Technology), and relative p-MEK signals were quantified using densitometry, normalized to the amount of input C-RAF, and compared to C-RAF-WT as a reference.

For another test, the system named is p-MEK, p-ERK. As to the kind of experiment: Immunoblot of MEK/ERK signaling in 293T cells expressing C-RAF resistance mutants. Particulars: 2 μM. In kind it is cell-based, human. The procedure: as §1, with “The immunoreactivity of the primary antibodies C-RAF, S259C-RAF, S338C-RAF, S621C-RAF, PERK, ERK, pMEK, MEK, 14-3-3ζ Flag (Cell Signaling), B-RAF (Santa Cruz Biotechnology) and actin (Sigma) was visualized with a secondary anti-rabbit (BD Transduction Laboratories) or anti-mouse (Santa Cruz Biotechnology) antibodies conjugated with horseradish peroxidase and subsequent development with ECL Plus (Amersham Biosciences) and autoradiography on X-OMAR TAR films.” left out

Test [8] relates to A375 cells expressing WT-C-RAF. As to the kind of experiment: Pharmacologic growth inhibition assay, WT-C-RAF cells. Particulars: Homo sapiens, A-375, 96 h.
For test [9], the system named is A375 cells expressing C-RAF resistance allele G361A. In words: Pharmacologic growth inhibition assay, G361A cells. Type of test: cell-based, human. Particulars: A375 expressing C-RAF G361A vs WT-C-RAF. Here is the method: as §4
A further test deals with C-RAF homodimer. As to the kind of experiment: C-RAF homodimerization, Ni2+ bead pull-down of His-tagged C-RAF, anti-Flag immunoblot. In kind it is cell-based, human. The conditions noted are these: 293T cells expressing C-RAF resistance mutants; 2 μM, 1 h. Here is the method:
(A) 293T cells co-expressing His/V5-tagged and Flag-tagged C-RAF resistance mutants for 48 h were immunoprecipitated with Nickel (see Methods) to pull down His-tagged C-RAF, and Flag tagged C-RAF was assessed by immunoblotting. Input lysate was also assessed using antibodies that detected Flag-C-RAF, V5-C-RAF, total C-RAF, p-MEK, p-ERK and total ERK. (B) 293T cells co-expressing His/V5-tagged and Flag-tagged C-RAF resistance mutants were treated with either vehicle (DMSO) or 2 μM of vemurafenib for 1 h, and His/V5-tagged C-RAFwas immunoprecipitated as in (A) above. Input lysates were immunoblotted using antibodies recognizing C-RAF (S338), p-MEK, p-ERK, and actin (loading control). (C) In vitro C-Raf kinase activity was measured in cell extracts derived from 293T cells transiently expressing Flag-tagged empty vector (“C”), wild type C-RAF (“WT”), and C-RAF harboring the resistance mutants S257P, P261T, G361A and E478K. Assays were performed in the presence or absence of 2 μM vemurafenib (see Methods). […] (D) In vitro C-Raf kinase activity was measured in cell extracts derived from A375 cells (B-RAF^V600E) (“C”) and A375 stably expressing wild type C-RAF (“WT”), and C-RAF harboring the resistance mutants S257P, P261T, and G361A in the presence and absence of 2 μM vemurafenib. […]

Test [10] deals with B-RAF/C-RAF heterodimerization. In words: Immunoprecipitation with C-RAF, bound B-RAF. Type of test: cell-based, human.
The target in test [11] is B-RAF/C-RAF heterodimerization (Homo sapiens, UniProt P04049+P15056, V600E). As to the kind of experiment: Immunoprecipitation with C-RAF, bound B-RAF. Type of test: cell-based. Particulars: A375 melanoma cells, wild-type C-RAF; 2 μM.
Where [12] appears, read: A375 expressing S257P, P261T and G361A, PLX4720 2 μM 16 h.

What is called GI50 is the concentration at which growth is held to half of that of the control. The low end stands for greater sensitivity of the cells, the high end for lower sensitivity of the cells.

For the compound `Cn1cnc2c(F)c(Nc3ccc(Br)cc3Cl)c(C(=O)NOCCO)cc21` [AZD6244], the pErk result with pMek1/2, pErk1/2 (A375 expressing resistance mutants, AZD6244 1 μM 16 h) is “diminishing levels”. Moreover, the S259 phosphorylation result in the test with C-RAF (S259, S338, S621) (AZD6244 1 μM 16 h) is “attenuated”.
Consider `CCCS(=O)(=O)Nc1ccc(F)c(C(=O)c2c[nH]c3ncc(-c4ccc(Cl)cc4)cc23)c1F` [Vemurafenib], for which the 14-3-3/C-RAF interactions entry with 14-3-3/C-RAF interaction [1] (293/T cells) is on record as “enhanced”. Further, in the test with 14-3-3/C-RAF interaction [1] (A375 cells (BRAF V600E)), the “14-3-3ζ binding to C-RAF S257P, P261T and G361A mutants” value is listed as “no effect”. Moreover, the “14-3-3ζ binding to wild-type C-RAF” value on 14-3-3/C-RAF interaction [2] was “modestly decreased”. The “resistance in growth inhibition” value in test [3] (A375 expressing C-RAF S257P) and in test [6] (A375 expressing C-RAF P261T) was “increased resistance” in each case. Further, the C-RAF kinase activity result with C-RAF resistance mutants [4] was “further augmented”. On C-RAF resistance mutants [5], the “C-RAF kinase activity in presence of the drug” value was “even higher kinase activity”. In addition, in the test on C-RAF resistance mutants [7], the “C-RAF kinase activity (p-MEK)” value was “marked up-regulation”. Also, the MEK/ERK activation entry with p-MEK, p-ERK (293/T cells, C-RAF G361A co-expressed with dimerization-deficient R401H double mutant, 1 hr) is listed as “further induced”. The “downstream MEK/ERK signaling” value with p-MEK, p-ERK (293T cells expressing C-RAF resistance mutants, 1 h) is “robustly induced”. In test [8], this compound returned a GI50 of 400 nM. Besides, the “increase of GI50 values / resistance compared to the WT” value (“increase of GI50 values / resistance” below) in [9] is given as 50 fold. Besides, the C-RAF dimerization entry in the test with C-RAF homodimer was “sustained but not further enhanced”. The B-RAF/C-RAF heterodimerization entry in [10] (293/T cells ectopically expressing wild-type C-RAF, 2 μM) is “induced”; in [11], “abrogated”. Besides, in [10] (A375 cells expressing the most robust C-RAF resistance mutants, in the presence of drug), the B-RAF heterodimerization result is listed as “sustained”. Besides, the “C-RAF activation (S338 phosphorylation)” value with C-RAF (S259, S338, S621) (293T cells expressing C-RAF resistance mutants, 2 μM, 1 h) was “robustly induced”.
In the case of `CCCS(=O)(=O)Nc1ccc(F)c(C(=O)c2c[nH]c3ncc(Cl)cc23)c1F` [PLX4720], the “increase of GI50 values compared to the WT” value in test [3] was around 100 fold. Also, the “increase of GI50 values compared to the WT” value in [6] was around 100 fold. This compound also returned a GI50 in test [8] of 400 nM. In test [9], the “increase of GI50 values / resistance” value stood at 30 fold. Besides, the “Mek phosphorylation (pMek) and Erk phosphorylation (pErk)” value in the test with pMek1/2, pErk1/2 (2 μM, A375 cells and WT-C-RAF expressing cells) is reported as “attenuated”. Besides, the “pMek and pErk” value in the test with pMek1/2, pErk1/2 (2 μM, A375 expressing C-RAF resistance alleles) was “sustained pMek and pErk”. Moreover, in the test on pMek1/2, pErk1/2 (A375 expressing CRAF G361A, high PLX4720 concentrations), the p-MEK entry was “substantial “paradoxical” activation”. In the test on C-RAF (S259, S338, S621) (setting [12]), the “phosphorylation of S338” value is listed as “induced” and the “phosphorylation of S621” value is recorded as “modest increase”. Moreover, the S259 phosphorylation result in the test with C-RAF (S259, S338, S621) (PLX4720) is “induced”.
Regarding `COC(=O)N[C@@H](C)CNc1nccc(-c2cn(C(C)C)nc2-c2cc(Cl)cc(NS(C)(=O)=O)c2F)n1` [(S)-methyl 1-(4-(3-(5-chloro-2-fluoro-3-(methylsulfonamido)phenyl)-1-isopropyl-1H-pyrazol-4-yl)pyrimidin-2-ylamino)propan-2-ylcarbamate], the “increase of GI50 values compared to the WT” value in [3] is listed as ~10,000 fold; in test [6] it was ~30,000 fold. In addition, the “increase of GI50 values / resistance” value in test [9] turned out to be 20 fold. In addition, the “biochemical resistance (pMek/pErk)” value in the test on pMek1/2, pErk1/2 (1 μM, A375 expressing C-RAF resistance mutants) is on record as “conferred resistance”.

(Values after patent publication US12146196B2, “C-RAF mutants that confer resistance to RAF inhibitors” (DANA-FARBER CANCER INSTITUTE, INC., priority 2012, dated 2024).)
